Data reported in the NIST ThermoML archive (doi:10.1016/j.jct.2011.07.018).

Columns and labels:
[1] = 298.15 K; 101.33 kPa; Liquid; Vibrating tube method
[2] = excess molar enthalpy (molar enthalpy of mixing); xn = mol fraction of the nth substance listed; settings: 298.15 K, 101 kPa, Liquid, isothermal titration calorimeter

CCCCCCC(C)=O [2-octanone]
Settings | mass density [kg/m3]
[1] | 814.32

CCCCCCC(C)=O [2-octanone] + CCCCCCCCO
[2]
Settings | excess molar enthalpy [kcal/mol]
x2 = 0.015 | 0.0217
x2 = 0.03 | 0.0425
x2 = 0.045 | 0.0619
x2 = 0.059 | 0.0793
x2 = 0.072 | 0.0961
x2 = 0.085 | 0.111
x2 = 0.098 | 0.126
x2 = 0.111 | 0.139
x2 = 0.124 | 0.152
x2 = 0.137 | 0.165
x2 = 0.15 | 0.177
x2 = 0.162 | 0.188
x2 = 0.174 | 0.197
x2 = 0.186 | 0.207
x2 = 0.197 | 0.215
x2 = 0.206 | 0.228
x2 = 0.212 | 0.233
x2 = 0.218 | 0.237
x2 = 0.225 | 0.241
x2 = 0.232 | 0.246
x2 = 0.24 | 0.251
x2 = 0.248 | 0.256
x2 = 0.256 | 0.261
x2 = 0.266 | 0.266
x2 = 0.276 | 0.272
x2 = 0.283 | 0.275
x2 = 0.291 | 0.279
x2 = 0.299 | 0.283
x2 = 0.308 | 0.286
x2 = 0.317 | 0.29
x2 = 0.327 | 0.294
x2 = 0.337 | 0.298
x2 = 0.348 | 0.301
x2 = 0.36 | 0.305
x2 = 0.373 | 0.308
x2 = 0.383 | 0.31
x2 = 0.393 | 0.313
x2 = 0.404 | 0.315
x2 = 0.415 | 0.316
x2 = 0.428 | 0.318
x2 = 0.44 | 0.32
x2 = 0.454 | 0.321
x2 = 0.469 | 0.322
x2 = 0.484 | 0.322
x2 = 0.496 | 0.321
x2 = 0.509 | 0.321
x2 = 0.523 | 0.32
x2 = 0.537 | 0.318
x2 = 0.552 | 0.316
x2 = 0.567 | 0.313
x2 = 0.587 | 0.31
x2 = 0.602 | 0.305
x2 = 0.62 | 0.3
x2 = 0.64 | 0.293
x2 = 0.657 | 0.288
x2 = 0.674 | 0.281
x2 = 0.692 | 0.273
x2 = 0.711 | 0.263
x2 = 0.731 | 0.252
x2 = 0.752 | 0.24
x2 = 0.775 | 0.226
x2 = 0.799 | 0.209
x2 = 0.82 | 0.194
x2 = 0.841 | 0.176
x2 = 0.864 | 0.156
x2 = 0.888 | 0.133
x2 = 0.914 | 0.107
x2 = 0.941 | 0.0762
x2 = 0.97 | 0.0411
